Results on 1 compound are retold here after patent publication US10772909B2, “System and method for insulin-mimetic of cartilage, bone, or osteochondral repair and piezoelectric composite scaffold” (New Jersey Institute of Technology, priority 2016, dated 2020).

Test [1] deals with Human MSCs. As to the kind of experiment: Chondrogenesis culture: immunostaining, confocal microscopy. It is filed as cell-based. To be noted: day 28. As to the method:
(§1) Chondrogenesis Culture. Cryopreserved MSCs were thawed and expanded in GM until 70-80% confluent. Cells were trypsininzed and then seeded on 6 mm diameter scaffold disks at 1.76×10^5 cells/cm^2 and cultured for 28 days in GM, chondrogenic induction medium (CCM), or CCM without insulin, according to previously published methods. CCM consisted of DMEM high glucose containing 4 mM L-glutamine (Invitrogen, Grand Island, N.Y., USA), 0.1 μM dexamethasone (Sigma-Aldrich), 0.17 mM ascorbic acid-2-phosphate (Wako Chemicals, Richmond, Va., USA), 1% ITS+(6.25 µg/mL insulin, 6.25 µg/mL transferrin, 6.25 ng/mL selenous acid, 5.35 μg/ml linoleic acid and 1.25 mg of bovine serum albumin) Premix Culture Supplement (Corning, Corning, N.Y., USA), 1× antibiotic-antimycotic, 1 mM sodium pyruvate (Sigma-Aldrich), 0.35 mM proline (Sigma-Aldrich), and 10 ng/mL recombinant human transforming growth factor-beta3 (TGF-β3, ProSpec, Israel). CCM without insulin consisted of CCM where the 1% ITS+Premix Culture Supplement was substituted with 1% stock solution (6.25 μg/ml transferrin and 6.25 ng/ml selenous acid, 5.35 μg/ml lionleic acid (Sigma-Aldrich) and 1.25 mg of bovine serum albumin (Fisher Scientific). Na2WO4 was added to all media leading to final Na2WO4 concentrations of 0, 0.01, 0.1 and 1 mM. Samples were harvested and analyzed for sulfated glycosaminoglycans (sGAG), cell number and gene expression at day 14 and 28 and for collagen type II and immunostaining at day 28.
Immunostaining was used to observe cell morphology and collagen type II deposition at day 28. Samples were fixed using 4% paraformaldehyde for 20 minutes. Samples were permealized with 0.1% Triton-X for 15 minutes and then non-specific binding was blocked using 5% donkey serum (Sigma-Aldrich, Mo., USA) for 1 hour. Samples were incubated with mouse antihuman collagen type II antibody (EMD Millipore; Calif., USA) in 4° C. overnight. Samples were then incubated with conjugated northern light 493 secondary antibody (Donkey anti-Mouse IgG, Fisher Scientific, Rockford, Ill.) and rhodamine phalloidin (Life Technologies) for actin filament for 1 h. The nucleus was stained with 4′,6-diamidino-2-phenylindole (DAPI, Fisher Scientific). The images were taken using a confocal fluorescence microscope (Cl-si, Nikon, Japan).

Test [2] concerns Human MSCs. Description: MSC growth on PCL scaffolds in growth medium (PicoGreen ds DNA cell number). The test is classed as cell-based. To be noted: GM; for cell number, change from days 4 to 7: p<0.05; for cell number compared to the other groups: days 7 and 11. As to the method:
MSCs were cultured on the scaffolds in the presence of Na2WO4 (Na2WO4.2H2O, MW=329.85 g/mol; Sigma Aldrich) in the range of 0.01-50 mM to determine which concentrations supported cell growth. Before cell seeding, scaffolds were cut into 6 mm diameter disks using a biopsy punch (Integra Miltek, York, Pa.), sterilized in 100% ethanol for 20 minutes and were air dried overnight. Cryopreserved MSCs were thawed and expanded in tissue culture treated polystyrene flasks (Nunc, Thermo Fisher Scientific, Waltham, Mass., USA) in growth medium (GM) comprised of Dulbecco's Modified Eagle's Medium (DMEM, Invitrogen, Grand Island, N.Y., USA), 10% fetal bovine serum (Hyclone, Thermo Fisher Scientific) and 1% antibiotic-antimycotic (Invitrogen) at 37° C. and 5% CO2 until 70-80% confluent. Cells were trypsinized using 0.25% Trypsin-EDTA (Thermo Fisher Scientific), resuspended in GM and then seeded onto scaffolds at 3.5×10^4 cells/cm^2 and cultured for 11 days in GM alone or with Na2WO4. Na2WO4 was added to GM leading to final Na2WO4 concentrations of 0, 0.01, 0.1, 1, 10 and 50 mM. Samples (n=4) were harvested and analyzed at days 4, 7 and 11 for cell number using the PicoGreen® ds DNA assay (Life Technologies).
MSCs of known cell number were used as a standard. Standards and samples were prepared by lysing the cells using 0.1% Triton X-100 (Sigma-Aldrich, Mo., USA). The cell lysate of samples and standards (n=4 per group) was mixed with an equal volume of Pico Green dye, which binds to the double-stranded (ds) DNA. Fluorescence intensity was measured with a microplate reader ((FLX800, Biotek Instruments, Vt., USA)) at 480 nm excitation and 520 nm emission. A standard curve of known cell number was used to determine the sample cell number.

In a further test the test system is SOX-9. As to the kind of experiment: Chondrogenesis culture: gene expression by RT-PCR, SOX-9. The test is classed as cell-based, human. As to the method: as §1
Gene expression was evaluated using quantitative reverse transcription (RT)-polymerase chain reaction (PCR) analysis. RT-PCR was performed with RNeasy Micro Kit and SYBR Green RT-PCR Kit (Qiagen; Valencia, Calif., USA) using the MX4000 detection system (Stratagene) according to the manufacturer's protocol. Relative gene expression of SOX-9, aggrecan and collagen type II were determined. Samples (n=4 per group) were harvested and digested using Lysis Buffer. RNA was isolated from the samples using RNeasy Micro Kit (Qiagen) including DNA digestion step (RNase Free DNase Set; Qiagen). The RNA quantity and integrity were determined by measuring the absorbance at 260 nm and the absorbance ratio of 260 nm/280 nm, respectively, using Nanodrop™ Spectrophotometer (Thermo Fisher Scientific). Quantitative PCR analysis was performed using QuantiTect SYBR Green supermix including the QuantiTect Primer Assays. The reverse transcription step ran for 30 minutes at 50° C., 15 minutes at 95° C. of PCR activation followed by forty cycle of amplification consisting of 15 s denaturation at 94° C., 30 s of annealing at 55° C., and 30 s of extension at 72° C. A melting curve analysis of the RT-PCR product was included for each reaction. Samples were analyzed in triplicate and the value of each gene was normalized to the reference gene ribosomal protein, large, P0 (RPLP0) for the same sample (ΔCT). Primers were purchased from Qiagen (Hs_ACAN, QT00001365; Hs_SOX9, QT00001498; Hs_COL2A1, QT00049518; and Hs_RPLP0 QT00075012).

For the compound `[Na+].[Na+].[O]=[W](=[O])([O-])[O-]` [Na2WO4, sodium tungstate], the “collagen type II immunostaining vs 0 mM” value is reported as “more intense” with Human MSCs [1] (0.01 mM Na2WO4, GM); “more intense” in the test with Human MSCs [1] (0.1 mM Na2WO4, GM); “more intense collagen type II staining” in the test on Human MSCs [1] (Na2WO4 groups, CCM). Besides, the “collagen type II immunostaining” value with Human MSCs [1] (CCM without insulin groups, except for 1 mM Na2WO4) is listed as “showed collagen type II staining”. Besides, the “actin filament staining as an indicator of attachment” value in the test with Human MSCs [1] (all groups) was “intense actin filament staining”. For the same compound, the “cell number, change from days 4 to 7” value in the test on Human MSCs [2] (0.01 mM Na2WO4) and in the test on Human MSCs [2] (0.1 mM Na2WO4) was “significantly increased in cell numbers” throughout. Further, the “cell number compared to the other groups” value with Human MSCs [2] (1 mM Na2WO4), in the test with Human MSCs [2] (10 mM Na2WO4) and with Human MSCs [2] (50 mM Na2WO4) was “significantly lower cell numbers” throughout. The “SOX-9 gene expression vs 0 mM” value in the test on SOX-9 (0.01 mM Na2WO4, CCM without insulin, day 14) is on record as “significantly higher”; in the test with SOX-9 (0.01 mM Na2WO4, CCM, day 28, p<0.05) it was “significantly higher SOX-9”; with SOX-9 (0.1 mM Na2WO4, CCM, day 28, p<0.01), “significantly higher SOX-9”. Moreover, the SOX-9 gene expression entry in the test with SOX-9 (0.1 mM Na2WO4, CCM, day 14, p<0.05) is given as “highest SOX-9 gene expression”; in the test on SOX-9 (1 mM Na2WO4, CCM), “lowest gene expression”. Also, the “SOX-9 gene expression (chondrogenic genes)” value in the test on SOX-9 (GM with Na2WO4) was “no significant upregulation of chondrogenic genes”.
